Laboratory results: ChEMBL document CHEMBL5370591, “A Potent and Narrow-Spectrum Antibacterial against Clostridioides difficile Infection” (J Med Chem, 2023)
Values after ≈ are worked out from the molar mass of the structure shown. Active and inactive are the calls of the source. No cut-off for these calls is given here.

Key:
[1] = test system: Klebsiella pneumoniae; experiment: Antibacterial activity against Klebsiella pneumoniae ATCC700603 assessed as inhibition of bacterial growth by broth microdilution method; type: functional
[2] = test system: Escherichia coli; experiment: Antibacterial activity against Escherichia coli ATCC25922 assessed as inhibition of bacterial growth by broth microdilution method; type: functional
[3] = test system: Clostridioides difficile; experiment: Antibacterial activity against Clostridium difficile NR49292 assessed as inhibition of bacterial growth by broth microdilution method; type: functional
[4] = test system: Enterococcus faecium; experiment: Antibacterial activity against vancomycin resistant Enterococcus faecium 106 assessed as inhibition of bacterial growth by broth microdilution method; type: functional
[5] = test system: Clostridioides difficile; experiment: Antibacterial activity against Clostridium difficile 26675 assessed as inhibition of bacterial growth by broth microdilution method; type: functional
[6] = test system: Clostridioides difficile; experiment: Antibacterial activity against Clostridium difficile NR49302 assessed as inhibition of bacterial growth by broth microdilution method; type: functional
[7] = test system: Veillonella; experiment: Antibacterial activity against Veillonella HM-49 assessed as inhibition of bacterial growth by broth microdilution method; type: functional
[8] = test system: Klebsiella aerogenes; experiment: Antibacterial activity against Klebsiella aerogenes ATCC35029 assessed as inhibition of bacterial growth by broth microdilution method; type: functional
[9] = test system: Enterococcus faecium; experiment: Antibacterial activity against vancomycin susceptible Enterococcus faecium119-39A assessed as inhibition of bacterial growth by broth microdilution method; type: functional; conditions: 119-39A
[10] = test system: Clostridioides difficile; experiment: Antibacterial activity against Clostridium difficile BAA-1803 assessed as inhibition of bacterial growth by broth microdilution method; type: functional
[11] = test system: Clostridioides difficile; experiment: Antibacterial activity against Clostridium difficile ATCC 43255 assessed as inhibition of bacterial growth by broth microdilution method; type: functional
[12] = test system: Bifidobacterium longum; experiment: Antibacterial activity against Bifidobacterium longum HM-846 assessed as inhibition of bacterial growth by broth microdilution method; type: functional
[13] = test system: Staphylococcus haemolyticus; experiment: Antibacterial activity against Staphylococcus haemolyticus ATCC 29970 assessed as inhibition of bacterial growth by broth microdilution method; type: functional
[14] = test system: Clostridioides difficile; experiment: Antibacterial activity against Clostridium difficile NR49294 assessed as inhibition of bacterial growth by broth microdilution method; type: functional
[15] = test system: Clostridioides difficile; experiment: Antibacterial activity against Clostridium difficile 24531 assessed as inhibition of bacterial growth by broth microdilution method; type: functional
[16] = test system: Bacteroides fragilis; experiment: Antibacterial activity against Bacteroides fragilis HM-709 assessed as inhibition of bacterial growth by broth microdilution method; type: functional
[17] = test system: Staphylococcus aureus; experiment: Antibacterial activity against vancomycin-resistant Staphylococcus aureus clinical isolate 1 assessed as inhibition of bacterial growth by broth microdilution method; type: functional
[18] = test system: Clostridioides difficile; experiment: Antibacterial activity against Clostridium difficile 23828 assessed as inhibition of bacterial growth by broth microdilution method; type: functional
[19] = test system: Lactobacillus gasseri; experiment: Antibacterial activity against Lactobacillus gasseri HM-644 assessed as inhibition of bacterial growth by broth microdilution method; type: functional
[20] = test system: Acinetobacter baumannii; experiment: Antibacterial activity against Acinetobacter baumannii ATCC17961 assessed as inhibition of bacterial growth by broth microdilution method; type: functional
[21] = test system: Clostridioides difficile; experiment: Antibacterial activity against Clostridium difficile BAA-1870 assessed as inhibition of bacterial growth by broth microdilution method; type: functional
[22] = test system: Corynebacterium sp.; experiment: Antibacterial activity against Corynebacterium sp. HM-784 assessed as inhibition of bacterial growth by broth microdilution method; type: functional
[23] = test system: Streptococcus oralis; experiment: Antibacterial activity against Streptococcus oralis ATCC 9811 assessed as inhibition of bacterial growth by broth microdilution method; type: functional
[24] = test system: Limosilactobacillus reuteri; experiment: Antibacterial activity against Lactobacillus reuteri HM-102 assessed as inhibition of bacterial growth by broth microdilution method; type: functional
[25] = test system: Clostridioides difficile; experiment: Antibacterial activity against Clostridium difficile NR49318 assessed as inhibition of bacterial growth by broth microdilution method; type: functional
[26] = test system: Fusobacterium nucleatum; experiment: Antibacterial activity against Fusobacterium nucleatum HM-992 assessed as inhibition of bacterial growth by broth microdilution method; type: functional
[27] = test system: Clostridioides difficile; experiment: Antibacterial activity against Clostridium difficile NR49305 assessed as inhibition of bacterial growth by broth microdilution method; type: functional
[28] = test system: Eubacterium sp.; experiment: Antibacterial activity against Eubacterium sp. HM-178 assessed as inhibition of bacterial growth by broth microdilution method; type: functional
[29] = test system: Pseudomonas aeruginosa; experiment: Antibacterial activity against Pseudomonas aeruginosa ATCC27853 assessed as inhibition of bacterial growth by broth microdilution method; type: functional
[30] = test system: Clostridioides difficile; experiment: Antibacterial activity against Clostridium difficile NR49310 assessed as inhibition of bacterial growth by broth microdilution method; type: functional
[31] = test system: Bacillus licheniformis; experiment: Antibacterial activity against Bacillus licheniformis ATCC 12759 assessed as inhibition of bacterial growth by broth microdilution method; type: functional
[32] = test system: Enterococcus faecalis; experiment: Antibacterial activity against vancomycin susceptible Enterococcus faecalis 201 assessed as inhibition of bacterial growth by broth microdilution method; type: functional
[33] = test system: Streptococcus pyogenes; experiment: Antibacterial activity against Streptococcus pyogenes ATCC 49399 assessed as inhibition of bacterial growth by broth microdilution method; type: functional
[34] = test system: Clostridioides difficile; experiment: Antibacterial activity against Clostridium difficile ATCC 43255 assessed as damage in cell wall at 8 time MIC incubated for 24 hrs by scanning electron microscopy based analysis; type: functional, organism-based
[35] = test system: Staphylococcus epidermidis; experiment: Antibacterial activity against Staphylococcus epidermidis ATCC 35547 assessed as inhibition of bacterial growth by broth microdilution method; type: functional
[36] = test system: Enterococcus faecalis; experiment: Antibacterial activity against vancomycin resistant Enterococcus faecalis 99 assessed as inhibition of bacterial growth by broth microdilution method; type: functional
[37] = test system: Enterococcus faecium; experiment: Antibacterial activity against Enterococcus faecium NCTC 7171 assessed as inhibition of bacterial growth by broth microdilution method; type: functional
[38] = test system: Enterococcus faecalis; experiment: Antibacterial activity against Enterococcus faecalis ATCC 29212 assessed as inhibition of bacterial growth by broth microdilution method; type: functional
[39] = test system: Staphylococcus aureus; experiment: Antibacterial activity against vancomycin-resistant Staphylococcus aureus clinical isolate 2 assessed as inhibition of bacterial growth by broth microdilution method; type: functional
[40] = test system: Bacillus cereus; experiment: Antibacterial activity against Bacillus cereus ATCC 13061 assessed as inhibition of bacterial growth by broth microdilution method; type: functional
[41] = Selectivity ratio of IC50 for human THP-1 cells to MIC for Clostridium difficile ATCC 43255; type: toxicity
[42] = test system: HepG2; experiment: Antiproliferative activity against human HepG2 cells assessed as inhibition of cell growth by XTT assay; type: functional, cell-based
[43] = Selectivity ratio of IC50 for human HepG2 cells to MIC for Clostridium difficile ATCC 43255; type: toxicity
[44] = test system: THP-1; experiment: Cytotoxicity against human THP-1 cells assessed as increase in LDH release incubate for 24 hrs by trypan-blue staining based analysis; type: functional, cell-based; conditions: THP-1, 24 h
[45] = test system: Clostridioides difficile; experiment: Antibacterial activity against Clostridium difficile ATCC 43255 measured after 48 hrs by two fold serial dilution method; type: functional

SMILES	MIC [1]	MIC [2]	MIC [4]	MIC [5]	MIC [8]	MIC [9]	MIC [10]	MIC [12]	MIC [13]	MIC [15]	MIC [17]	MIC [18]	MIC [20]	MIC [21]	MIC [22]	MIC [29]	other results
CCc1c(Cl)c(O)c(Cl)c(O)c1C(=O)O[C@H]1[C@H](O)[C@H](OC)[C@H](OC/C2=C\C=C\C[C@H](O)/C(C)=C/[C@H](CC)[C@@H](O[C@@H]3OC(C)(C)[C@@H](OC(=O)C(C)C)[C@H](O)[C@@H]3O)/C(C)=C/C(C)=C/C[C@@H]([C@@H](C)O)OC2=O)O[C@@H]1C [FIDAXOMICIN]	> 128 µg/mL	> 128 µg/mL	> 16 µg/mL	4 µg/mL (≈ 3.78 µM)	> 128 µg/mL	> 16 µg/mL	1 µg/mL (≈ 0.945 µM)	< 0.01 µg/mL	16 µg/mL (≈ 15.1 µM)	0.01 µg/mL (≈ 0.00945 µM)	64 µg/mL (≈ 60.5 µM)	> 8 µg/mL	> 128 µg/mL	0.25 µg/mL (≈ 0.236 µM)	< 0.06 µg/mL	> 128 µg/mL	MIC [3]: 0.5 µg/mL (≈ 0.473 µM); MIC [6]: 0.03 µg/mL (≈ 0.0284 µM); MIC [7]: 8 µg/mL (≈ 7.56 µM); MIC [11]: 0.06 µg/mL (≈ 0.0567 µM); MIC [14]: 0.01 µg/mL (≈ 0.00945 µM); MIC [16]: > 32 µg/mL; MIC [19]: 2 µg/mL (≈ 1.89 µM); MIC [23]: 32 µg/mL (≈ 30.2 µM); MIC [24]: > 32 µg/mL; MIC [25]: 0.125 µg/mL (≈ 0.118 µM); MIC [26]: < 0.06 µg/mL; MIC [27]: 0.01 µg/mL (≈ 0.00945 µM); MIC [28]: 16 µg/mL (≈ 15.1 µM); MIC [30]: ≤ 0.01 µg/mL
Cc1ncc([N+](=O)[O-])n1CCO [METRONIDAZOLE]	> 128 µg/mL	> 128 µg/mL	> 16 µg/mL	4 µg/mL (≈ 23.4 µM)	> 128 µg/mL	> 16 µg/mL	0.5 µg/mL (≈ 2.92 µM)	0.05 µg/mL (≈ 0.292 µM)	> 256 µg/mL	0.5 µg/mL (≈ 2.92 µM)	> 256 µg/mL	0.5 µg/mL (≈ 2.92 µM)	> 128 µg/mL	0.5 µg/mL (≈ 2.92 µM)	> 32 µg/mL	> 128 µg/mL	MIC [31]: > 256 µg/mL; MIC [32]: > 256 µg/mL; MIC [33]: > 128 µg/mL; Activity [34]: inactive; MIC [35]: > 128 µg/mL; MIC [36]: > 256 µg/mL; MIC [37]: > 128 µg/mL; MIC [38]: > 256 µg/mL; MIC [39]: > 256 µg/mL; MIC [40]: > 256 µg/mL
O=[N+]([O-])c1c[nH]c(-c2nc(-c3ccc(OC4CCC4)cc3)no2)n1	–	–	–	–	–	–	–	–	–	–	–	–	–	–	–	–	selectivity ratio [41]: > 512; IC50 [42]: 41.9 µg/mL (≈ 128 µM); selectivity ratio [43]: 168; IC50 [44]: > 128 µg/mL; MIC [45]: 0.25 µg/mL (≈ 0.764 µM)
